What all share (assay): NCI-60 cell line screen, 48 h
Test [1] has as its system CAKI-1.
Test [2] relates to COLO 205.
For test [3], the system named is DMS-273.
The test system of test [4] is EKVX.
Test [5] has as its system HCC 2998.
The test system of test [6] is HCT-116.
For test [7], the system named is IGROV-1.
Test [8] has as its system NCI-H23.
Test [9] concerns NCI-H460.
Test [10] deals with NCI-H522.
Test [11] relates to OVCAR-3.
Test [12] has as its system SF-295.
The subject of test [13] is SK-MEL-5.
Test [14] relates to TK-10.
In test [15] the test system is HL-60.
The subject of test [16] is MCF7.
Test [17] relates to MDA-MB-435.
Test [18] has as its system NCI/ADR-RES.
For test [19], the system named is RPMI-8226.
The subject of test [20] is SR.

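Test compounds were applied to cells in 96-well plates for 48 hours at 5 doses. GI50 is the concentration that inhibits growth by half.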 Active and inactive are the calls of the source. Cut-off read from the data, not from the text of the source: active = GI50 up to about 1.1 µM and inactive = higher.

With `O=C1/C(=C/c2ccc3c(c2)OCO3)SC2C=Nc3ccccc3N12` (stereo unspecified), the GI50 in [1], in test [2], in test [3], in test [4], in test [5] and in [6] was > 100 µM (inactive) throughout. The GI50 in [7], in [8], in test [9], in [10], in test [11] and in [12] was > 100 µM (inactive) in each case. The GI50 in test [13] and in test [14] was > 100 µM (inactive) each time.
For `O=C1OC(C2(O)OC(=O)c3ccccc32)c2ccccc21` (stereo unspecified), the GI50 was > 100 µM (inactive) in test [1]; > 100 µM (inactive) in test [2]; 62.4 µM (inactive) in [4]; > 100 µM (inactive) in test [5]; > 100 µM (inactive) in test [6]; > 100 µM (inactive) in test [15]. The GI50 in test [7], in test [16], in [17], in [8], in test [9] and in [10] was > 100 µM (inactive) throughout. Further, the GI50 in [18], in test [11], in test [19], in test [12], in [13] and in test [20] was > 100 µM (inactive) throughout. Also, the GI50 in test [14] is > 100 µM (inactive).
Turning to `COc1cc(-c2nc3ccccn3c2/N=C/c2cc(Br)cc(Br)c2O)ccc1O`, the GI50 in test [1] is 29.2 µM (inactive); in test [2], 26.9 µM (inactive); in test [4] it was 19.1 µM (inactive); in test [5], 79.6 µM (inactive); in test [6] it was 18.4 µM (inactive); in test [15], 18.2 µM (inactive). In addition, the GI50 in test [7] was 22.9 µM (inactive); in [16], 22.3 µM (inactive); in test [17], 22.4 µM (inactive); in test [8], 24.3 µM (inactive); in [9], 35.1 µM (inactive); in [10], 23.2 µM (inactive). For the same compound, the GI50 is 22 µM (inactive) in [18]; 15.6 µM (inactive) in [11]; 24.7 µM (inactive) in test [19]; 20.7 µM (inactive) in test [12]; 25.5 µM (inactive) in test [13]; 25.9 µM (inactive) in test [20]. Moreover, in test [14], the GI50 is 23.9 µM (inactive).
`CC1OC(O[C@H]2CC[C@]3(C=O)[C@H]4CC[C@]5(C)[C@H](C6=CC(=O)OC6)CC[C@]5(O)[C@@H]4C=C[C@]3(O)C2)CC(O)C1O` (stereo partly specified): the GI50 is 0.103 µM (active) in test [1]; 0.675 µM (active) in test [2]; 0.261 µM (active) in [4]; 0.836 µM (active) in test [5]; 0.0885 µM (active) in test [6]; 0.196 µM (active) in test [15]. Besides, the GI50 in test [7] was 0.157 µM (active); in test [16], 0.272 µM (active); in test [17], 0.346 µM (active); in test [8], 0.143 µM (active); in [9], 0.118 µM (active); in test [10], 0.0615 µM (active). Also, the GI50 in test [18] is 0.27 µM (active); in test [11] it was 0.15 µM (active); in [19] it was 0.136 µM (active); in test [12], 0.13 µM (active); in [13], 0.0991 µM (active); in [20], 0.0933 µM (active). Also, the GI50 in test [14] is 0.29 µM (active).
As for `O=C(O)CSc1nnc(-c2ccco2)[nH]1`, the GI50 in test [1], in test [2], in test [3], in test [4], in test [5] and in test [6] was > 100 µM (inactive) each time. In addition, the GI50 in [15], in test [7], in test [8], in test [9], in test [10] and in test [11] was > 100 µM (inactive) throughout. For the same compound, the GI50 in test [19], in test [12], in [13] and in test [14] was > 100 µM (inactive) throughout.
In the case of `CN(C)CCNC(=O)c1cccc2c1nc(-c1ccccn1)c1ccccc12`, the GI50 is 18.1 µM (inactive) in test [1]; 12.3 µM (inactive) in test [2]; 13.5 µM (inactive) in test [3]; 22.7 µM (inactive) in test [4]; 15.7 µM (inactive) in [5]; 10.3 µM (inactive) in test [6]. Moreover, the GI50 in [15] is 16.4 µM (inactive); in test [7] it was 16.1 µM (inactive); in [8], 15.7 µM (inactive); in test [9] it was 7.26 µM (inactive); in test [11], 17.4 µM (inactive); in test [12], 17.6 µM (inactive). Also, the values for the GI50 in test [13] and in test [14] were 15.2 µM (inactive) and > 10 µM (inactive), respectively.
`Cc1cc(O)c(C(C)C)cc1/N=C/c1ccccc1O`: the GI50 in test [1] was 12.1 µM (inactive); in [2], 25.5 µM (inactive); in [4], 7.87 µM (inactive); in test [5] it was 7.29 µM (inactive); in test [6] it was 4 µM (inactive); in [15] it was 0.303 µM (active). Also, the GI50 in [7] is 8.43 µM (inactive); in [16] it was 7.26 µM (inactive); in test [17] it was 1.99 µM (inactive); in test [8], 15.2 µM (inactive); in [9], 5.3 µM (inactive); in test [10], 3.72 µM (inactive). For the same compound, the GI50 in test [18] was 3.12 µM (inactive); in test [11], 2.48 µM (inactive); in test [19], 0.278 µM (active); in [12] it was 13.1 µM (inactive); in [13], 6.08 µM (inactive); in test [20] it was 1.15 µM (inactive). Moreover, the GI50 in test [14] is 13.1 µM (inactive).
On to `OC(COc1ccc(Cl)cc1Cl)CN1CCCC1` (stereo unspecified), for which the GI50 in test [1] is > 100 µM (inactive); in [2], > 100 µM (inactive); in test [4], 21.1 µM (inactive); in test [5], 32.9 µM (inactive); in [6], 87.3 µM (inactive); in [15], 42.7 µM (inactive). Also, the GI50 in test [7] was > 100 µM (inactive); in test [16], > 100 µM (inactive); in test [17], 74.1 µM (inactive); in test [8], > 100 µM (inactive); in test [9] it was 91.6 µM (inactive); in test [10], 52.8 µM (inactive). The GI50 in test [18] was > 100 µM (inactive); in test [11], 58.9 µM (inactive); in test [19], 57 µM (inactive); in test [12], 89.7 µM (inactive); in test [13], 27.9 µM (inactive); in [20], 64.6 µM (inactive). Further, in test [14], the GI50 is > 100 µM (inactive).
As to `COC(=N)C1(C#N)NC(c2ccsc2)C(C#N)(C#N)NC1c1ccsc1` (stereo unspecified), the GI50 in [1] was > 100 µM (inactive); in test [2] it was > 100 µM (inactive); in test [4], > 100 µM (inactive); in test [5] it was > 100 µM (inactive); in [6], > 100 µM (inactive); in test [15] it was 78.3 µM (inactive). Further, the GI50 in test [7], in [16], in [17], in test [8], in [9] and in test [10] was > 100 µM (inactive) in each case. Also, the GI50 in test [18], in test [11], in test [19], in test [12], in test [13] and in [20] was > 100 µM (inactive) throughout. In addition, the GI50 in test [14] was > 100 µM (inactive).
`COC1(C)CCC(OS(C)(=O)=O)CO1` (stereo unspecified): the GI50 in [1], in [2], in test [4], in [5], in test [6] and in [15] was > 100 µM (inactive) each time. For the same compound, the GI50 in test [7], in [16], in test [17], in test [8], in [9] and in test [10] was > 100 µM (inactive) each time. In addition, the GI50 in test [18], in [11], in test [19], in test [12], in test [13] and in test [20] was > 100 µM (inactive) throughout. Also, the GI50 in test [14] is > 100 µM (inactive).
As to `COc1cc2c(cc1OC)[C@H]1C(=O)c3cc4c(cc3[C@H]1N(C)C2=O)OCO4`, the GI50 is 3.13 µM (inactive) in test [1]; 6.14 µM (inactive) in test [2]; > 100 µM (inactive) in test [4]; 37.6 µM (inactive) in test [5]; 2.22 µM (inactive) in test [6]; 1.77 µM (inactive) in test [15]. The GI50 in [7] is 11.2 µM (inactive); in [16], 2.4 µM (inactive); in test [17] it was 16.6 µM (inactive); in test [8], 5.2 µM (inactive); in [9] it was 0.955 µM (active); in test [10] it was 1.06 µM (active). Also, the GI50 in test [18] was 4.81 µM (inactive); in test [11], 19.2 µM (inactive); in test [19], 4.34 µM (inactive); in [12] it was 2.35 µM (inactive); in [13], 1.96 µM (inactive); in [20] it was 0.557 µM (active). For the same compound, the GI50 in test [14] was > 100 µM (inactive).

The values above are taken from ChEMBL document CHEMBL1201862, “PubChem BioAssay data set” (2004).
